The values that follow come from PubChem BioAssay AID179 (DTP/NCI, 2004).

Values joined by “and” are separate entries in the source; they are usually repeats but may differ in a detail not shown here. Equal entries are not always repeated. Active and inactive are the calls of the source.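 How the source made its calls: active means compounds giving half or more protection of infected cells from virus-caused growth loss, again on retest; inactive means the rest.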 Some results are limits rather than exact numbers.

A word on the EC50: it is the concentration giving half of the maximal effect. The IC50 is the concentration needed to halve the response being measured. Low readings indicate greater potency, high ones weaker potency.

This experiment deals with CEM cells HIV-1 protection, formazan growth assay. Description: NCI AIDS Antiviral Assay. Conditions: for IC50: measured here: growth of uninfected CEM cells. Summed up:
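Protection of CEM cells against HIV-1 was scored from cell growth (soluble formazan) across five concentrations, with parallel uninfected cells. Lack of protection may reflect toxicity.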

As for `CC1=C(S(=O)c2ccc(C)cc2)CCC2(CCCCO2)O1` (stereo unspecified), the EC50 is > 200 µM and the IC50 was found to be 107 µM.
With `O=S1(=O)Cc2ccc3c4c2-c2c(ccc5ccc(c-4c25)CS(=O)(=O)C3)C1`, the EC50 was > 200 µM and the IC50 turned out to be 17 µM.
In the case of `CSc1c(C(=O)Nc2ccccc2)c(N)n(N)c(=O)c1C#N`, the EC50 is 55 µM and the IC50 was > 200 µM.
Turning to `CC(=O)N(C(C)=O)n1c(Cc2ccc(Cl)cc2)n[nH]c1=O`, the EC50 is > 200 µM and the IC50 is > 200 µM.
Take `COc1ccc(OC)c(/C=N/N=C(\N)NO)c1`: the EC50 is > 603 µM and the IC50 was found to be 115 µM.
Regarding `O=C(CO)CC(=O)C(=O)Nc1cccc(C(F)(F)F)c1`, the outcome was inactive.
In the case of `O=C(O)CC1SC2(C(=O)N(Cc3ccccc3)c3ccccc32)N(c2ccccc2)C1=O` (stereo unspecified), the EC50 is > 200 µM and the IC50 was > 100 µM.
Consider `CC(=O)OC1COC(Nn2c(=O)[nH]c3ccccc3c2=O)C(OC(C)=O)C1OC(C)=O` (stereo unspecified), for which the EC50 is > 200 µM and the IC50 was > 200 µM.
Turning to `O=C(O)CN(CCNC(=O)OCC1c2ccccc2-c2ccccc21)CCNC(=O)OCC1c2ccccc2-c2ccccc21`, the EC50 was > 200 µM and the IC50 amounted to 39.8 µM.
In the same order, the values of `COc1cc2c3c(n(C)c(=O)c2cc1OC)-c1cc2c(cc1C3=O)OCO2` are > 14.5 µM and 0.891 µM.
As for `COc1ccccc1C=C1C(=O)OC(C)(C)OC1=O`, the outcome was inactive.
Consider `S=C(N1CCN(c2cccc(Cl)c2)CC1)N1CCN(c2cccc(Cl)c2)CC1`, for which the EC50 was > 200 µM and the IC50 amounted to 72.4 µM.
In the same order, the values of `O=C(N/N=C/C=C/c1ccccc1)c1ccncc1` are > 200 µM and 33.1 µM.
For the molecule `CCc1occc(=O)c1O`, the EC50 is > 1780 µM and the IC50 is 339 µM.
The corresponding values for `CC1=NN(C(=O)CC(=O)N(C(=O)c2ccccc2)c2ccc(Cl)cc2)C(=O)C1N=Nc1ccc([N+](=O)[O-])cc1` (stereo unspecified) are 174 µM and > 200 µM.
In the same order, the values of `CC1=CC(C)N(C(=O)c2ccc(Cl)cc2)CCN1C(=O)c1ccc(Cl)cc1` (stereo unspecified) are > 44.7 µM and 33.9 µM.
In the same order, the values of `CC(=O)OC(C)(C)/C=C/C(=O)[C@](C)(O)[C@H]1[C@H](O)C[C@@]2(C)[C@@H]3CC=C4[C@@H](C[C@H](O)[C@H](O)C4(C)C)[C@]3(C)C(=O)C[C@]12C` are > 0.2 µM and 0.0912 µM.
`C=C1CCC23CC(CC[C@@H]2[C@@]12C[C@@H](c1ccoc1)OC2=O)OC3=O` (stereo partly specified): the EC50 was > 79.4 µM and the IC50 is > 79.4 µM.
Consider `C=C(C)C1=NC(C)(C)CC1=C(C)C`, for which the outcome was inactive.
With `O=[N+]([O-])C(=C/c1cccc2ccccc12)/C(=C\c1cccc2ccccc12)[N+](=O)[O-]`, the EC50 is > 20 µM and the IC50 worked out at 9.12 µM.
As to `CC(=O)Nc1ccc2c(C)c3c(nc2n1)[nH]c1ccccc13`, the EC50 is > 200 µM and the IC50 amounted to 25.7 µM.
Turning to `O=C1C=C(N2CCN(CCO)CC2)C(=O)c2c(N3CCN(CCO)CC3)cc(N3CCN(CCO)CC3)nc21`, the EC50 was > 158 µM and the IC50 is > 158 µM.
`N#C/C(=C\c1ccc(-c2ccccc2)cc1)c1ccccc1`: the EC50 is > 200 µM and the IC50 is 170 µM.
In the same order, the values of `COc1ccc2c(c1)NC1(O)c3ccccc3C(=O)C21O` (stereo unspecified) are > 331 µM and > 331 µM.
In the same order, the values of `C#Cc1cccc(NC(=O)/C=C\C(=O)O)c1` are > 832 µM and 537 µM.
The corresponding values for `CCOC(=O)/C(F)=C/c1cccc(C#N)c1` are > 117 µM and > 117 µM.
On to `Cc1cc2c(cc1-c1cc3c(cc1C)C(C(C)C)=C(O)C(=O)/C3=C\Nc1nc(-c3ccccc3)cs1)/C(=C/Nc1nc(-c3ccccc3)cs1)C(=O)C(O)=C2C(C)C`, for which the EC50 is > 100 µM and the IC50 is 13.2 µM.
In the same order, the values of `CCOC(=O)NP(=O)(N1CC1)N1CC1` are > 200 µM and > 200 µM.
In the same order, the values of `CC(C)COC(=O)CS(=O)(=O)O` are > 200 µM and > 200 µM.
Take `Cc1cn(CC2=NC3CCCCC3N2)c(=O)[nH]c1=O` (stereo unspecified): the EC50 was > 200 µM and the IC50 is > 200 µM.
With `C=CCN(N=O)C(=O)N(CCC)CCCCC(NC(C)=O)C(=O)NCc1ccccc1` (stereo unspecified), the outcome was inactive.
On to `CC(C)(O)[C@H]1OC2CC[C@@]3(C)C(O)(CC[C@H]4Cc5c([nH]c6ccccc56)C43C)C2=CC1=O` (stereo partly specified), for which the EC50 is > 200 µM and the IC50 was found to be 13.8 µM.
`CCOC(=O)CCC(NC(=O)C(N)c1ccc([N+](=O)[O-])cc1)C(=O)NC(CCC(=O)OCC)C(=O)OCC` (stereo unspecified): the EC50 was > 200 µM and the IC50 was > 200 µM.
Take `Cc1ccc2c3c(c(=O)oc2c1)[C@H](C)C[C@@](C)(CO)O3`: the EC50 is > 200 µM and the IC50 stood at 178 µM.
Take `O=C1OC(c2ccccc2)(c2ccccc2)c2ccsc21`: the EC50 is > 200 µM and the IC50 amounted to 69.2 µM.
On to `COC(=O)[C@H]1C[C@H]1NC(=O)C(CC(=O)OCc1ccccc1)NC(=O)OCc1ccccc1` (stereo partly specified), for which the EC50 is > 200 µM and the IC50 worked out at 79.4 µM.
The corresponding values for `COc1cc2c(c(OC)c1OC)-c1ccc(O)cc1C(NC(C)=O)CC2` (stereo unspecified) are > 2 µM and 0.0603 µM.
`COc1cc(O)c(C(=O)/C=C/c2ccc(Cl)c(Cl)c2)c(OC)c1`: the EC50 was > 200 µM and the IC50 is 3.02 µM.
For `COC(=O)[C@]1(C)CCC[C@]2(C)C3=CC(=O)[C@@]4(C(C)C)O[C@H]4[C@]3(O)CC[C@@H]12`, the EC50 is > 72.4 µM and the IC50 is > 72.4 µM.
Consider `COc1ccc(N2C(=O)/C(=C/c3ccc(N(CCC#N)CCC#N)cc3)N=C2c2ccccc2)c(OC)c1`, for which the EC50 was > 200 µM and the IC50 was 50.1 µM.
The corresponding values for `CCOC(=O)c1[nH]c2c(cc(C=O)c3ccccc32)c1C` are > 200 µM and 60.3 µM.
In the same order, the values of `Cc1cc(C)nc(NS(=O)(=O)c2ccc(Nc3c4ccccc4nc4c(C(=O)Nc5ccc(S(=O)(=O)N=C(N)N)cc5)cccc34)cc2)n1` are 49 µM and 51.3 µM.
With `Cc1cn(C2CC(N(O)Cc3ccccc3)C(CO[Si](C)(C)C(C)(C)C)O2)c(=O)[nH]c1=O` (stereo unspecified), the EC50 was > 200 µM; the IC50 was 12 µM and 36.3 µM.
On to `C=C1C2CCC3(CCC4C5(C)CCCC4(CN(CCO)C5)C3C2)C1O` (stereo unspecified), for which the outcome was inactive.
Turning to `CC(=O)N1c2cc(N=NN(C)C)ccc2NC(=O)CC1C` (stereo unspecified), the EC50 was > 200 µM and the half-inhibitory concentration (IC50) was > 200 µM.
For `CCOC(=O)[C@H]1C[C@H]2O[C@H]2C[C@@H]1C`, the result was inactive.
In the case of `CCOC(=O)C1CC2OC2CC1C(=O)OCC` (stereo unspecified), the EC50 is > 200 µM and the IC50 is > 200 µM.
For the molecule `O=c1c2cnccc2cc2c3ccccc3ccn12`, the EC50 was > 200 µM and the IC50 is 7.41 µM.
In the same order, the values of `NCCCC(N)(C(=O)O)C(F)F` (stereo unspecified) are > 200 µM and 129 µM.
Turning to `O=[N+]([O-])c1ccc(C2=Nc3ccccc3SC(c3ccccc3)C2)cc1` (stereo unspecified), the EC50 is > 27.5 µM and the IC50 was > 27.5 µM.
Turning to `Cc1ccc(NC(Nc2ccc(C)cc2C)=C(/C=C(\Cl)[N+](=O)[O-])[N+](=O)[O-])c(C)c1`, the EC50 was > 200 µM and the IC50 was 2.51 µM.
